Measured values reported in a compilation of properties of binary mixtures (doi:10.1007/s11581-010-0511-5).

Experiment: xn = mol fraction of the nth substance listed
Conditions: 101 kPa

CO + CCCC[N+]1(C)CCCC1.O=S(=O)([N-]S(=O)(=O)C(F)(F)F)C(F)(F)F
x2 = 0
Conditions | viscosity [mPa·s]
298.15 K | 0.7
303.15 K | 0.66
308.15 K | 0.61
313.15 K | 0.57
318.15 K | 0.53

CCCC[N+]1(C)CCCC1.O=S(=O)([N-]S(=O)(=O)C(F)(F)F)C(F)(F)F + CO
Conditions | electrical conductivity [S/m] | viscosity [mPa·s]
293.15 K, x1 = 0.11 | 0.628 | 2.16
293.15 K, x1 = 0.16 | 1.22 | 3.9
293.15 K, x1 = 0.21 | 1.6 | 6.01
293.15 K, x1 = 0.32 | 1.98 | 10.65
293.15 K, x1 = 0.42 | 2.14 | 15.15
293.15 K, x1 = 0.47 | 2.04 | 17.28
293.15 K, x1 = 0.53 | 1.82 | 19.42
293.15 K, x1 = 0.58 | 1.63 | 21.7
293.15 K, x1 = 0.63 | 1.47 | 24.4
293.15 K, x1 = 0.68 | 1.23 | 27.6
293.15 K, x1 = 0.74 | 0.998 | 31.9
293.15 K, x1 = 0.79 | 0.82 | 37.6
293.15 K, x1 = 0.84 | 0.649 | 45.2
293.15 K, x1 = 0.89 | 0.402 | 55.3
293.15 K, x1 = 0.95 | – | 68.7
293.15 K, x1 = 1 | 0.229 | 86
298.15 K, x1 = 0.05 | 0.399 | 0.94
298.15 K, x1 = 0.11 | 0.684 | 1.93
298.15 K, x1 = 0.16 | 1.32 | 3.43
298.15 K, x1 = 0.21 | 1.73 | 5.24
298.15 K, x1 = 0.32 | 2.15 | 9.18
298.15 K, x1 = 0.37 | 2.32 | 11.1
298.15 K, x1 = 0.42 | 2.37 | 12.93
298.15 K, x1 = 0.47 | 2.33 | 14.69
298.15 K, x1 = 0.53 | 2.12 | 16.43
298.15 K, x1 = 0.58 | 1.88 | 18.28
298.15 K, x1 = 0.63 | 1.66 | 20.39
298.15 K, x1 = 0.68 | 1.43 | 23
298.15 K, x1 = 0.74 | 1.2 | 26.3
298.15 K, x1 = 0.79 | 0.991 | 30.8
298.15 K, x1 = 0.84 | 0.786 | 36.7
298.15 K, x1 = 0.89 | 0.495 | 44.6
298.15 K, x1 = 0.95 | – | 54.9
298.15 K, x1 = 1 | 0.282 | 68.1
303.15 K, x1 = 0.05 | 0.43 | 0.88
303.15 K, x1 = 0.11 | 0.754 | 1.75
303.15 K, x1 = 0.16 | 1.43 | 3.06
303.15 K, x1 = 0.21 | 1.88 | 4.62
303.15 K, x1 = 0.32 | 2.35 | 7.96
303.15 K, x1 = 0.37 | 2.53 | 9.57
303.15 K, x1 = 0.47 | 2.59 | 12.57
303.15 K, x1 = 0.53 | 2.37 | 14.02
303.15 K, x1 = 0.58 | 2.1 | 15.54
303.15 K, x1 = 0.63 | 1.84 | 17.28
303.15 K, x1 = 0.68 | 1.6 | 19.39
303.15 K, x1 = 0.74 | 1.35 | 22.1
303.15 K, x1 = 0.79 | 1.13 | 25.6
303.15 K, x1 = 0.84 | 0.94 | 30.2
303.15 K, x1 = 0.89 | 0.601 | 36.2
303.15 K, x1 = 0.95 | – | 44
303.15 K, x1 = 1 | 0.344 | 54
308.15 K, x1 = 0.05 | 0.464 | 0.82
308.15 K, x1 = 0.11 | 0.816 | 1.6
308.15 K, x1 = 0.16 | 1.54 | 2.75
308.15 K, x1 = 0.21 | 2.07 | 4.1
308.15 K, x1 = 0.32 | 2.55 | 6.97
308.15 K, x1 = 0.37 | 2.74 | 8.34
308.15 K, x1 = 0.42 | 2.86 | 9.64
308.15 K, x1 = 0.53 | 2.65 | 12.09
308.15 K, x1 = 0.58 | 2.36 | 13.36
308.15 K, x1 = 0.63 | 2.1 | 14.8
308.15 K, x1 = 0.74 | 1.57 | 18.74
308.15 K, x1 = 0.79 | 1.33 | 21.6
308.15 K, x1 = 0.84 | 1.1 | 25.3
308.15 K, x1 = 0.89 | 0.686 | 30.2
308.15 K, x1 = 0.95 | – | 36.4
308.15 K, x1 = 1 | 0.415 | 44.4
313.15 K, x1 = 0.05 | 0.504 | 0.77
313.15 K, x1 = 0.11 | 0.86 | 1.47
313.15 K, x1 = 0.16 | 1.66 | 2.48
313.15 K, x1 = 0.21 | 2.24 | 3.67
313.15 K, x1 = 0.26 | 2.53 | 4.92
313.15 K, x1 = 0.37 | 2.95 | 7.34
313.15 K, x1 = 0.42 | 3.07 | 8.45
313.15 K, x1 = 0.47 | 3.09 | 9.51
313.15 K, x1 = 0.58 | 2.63 | 11.64
313.15 K, x1 = 0.63 | 2.38 | 12.85
313.15 K, x1 = 0.79 | 1.55 | 18.4
313.15 K, x1 = 0.89 | 0.876 | 25.1
313.15 K, x1 = 0.95 | – | 29.8
318.15 K, x1 = 0.05 | 0.538 | 0.73
318.15 K, x1 = 0.11 | 0.94 | 1.36
318.15 K, x1 = 0.16 | 1.8 | 2.26
318.15 K, x1 = 0.26 | 2.7 | 4.39
318.15 K, x1 = 0.32 | 3.02 | 5.45
318.15 K, x1 = 0.37 | 3.18 | 6.46
318.15 K, x1 = 0.42 | 3.26 | 7.41
318.15 K, x1 = 0.47 | 3.3 | 8.32
318.15 K, x1 = 0.53 | 3.18 | 9.22
318.15 K, x1 = 0.58 | 2.86 | 10.16
318.15 K, x1 = 0.74 | 1.98 | 14.02
318.15 K, x1 = 0.89 | 0.991 | 21.4
318.15 K, x1 = 1 | 0.559 | 29.7
